Test results: patent publication US9801901B2, “Alginate oligomers for use in overcoming multidrug resistance in bacteria” (priority 2009, dated 2017)
In brackets after ≈: the same amount, converted by molar mass. Read-outs that look alike come from different tables or passages of the source. Marks after values point to notes of the source that are not given here.

Experiments:
V22 6056 Acinetobacter = assay: MIC assay, CAMHB with alginate oligomer, no visible growth; type: cell-based, Acinetobacter lwoffii; conditions: Table 5, V22 MDR Acin. lwoff
[1] = test system: Acinetobacter baumannii MDR ACB from Libya (V4); assay: as above; type: cell-based; conditions: Acinetobacter baumannii, read-out: MIC
Source text: The study described in Example 1 was repeated with the following strains of bacteria and antibiotics as detailed in Tables 4, 5 and 6.
(§1) The study described in Example 1 was repeated with the following strains of Acinetobacter baumannii, antibiotics and M-block alginate oligomer in place of OligoG CF-5/20 as detailed in Table 7. The M-block oligomer is 100% M with a DPn of 15 to 18,

[2] = test system: Klebsiella pneumoniae KP05 506 from India (V3); assay: as above; type: cell-based; conditions: for MIC: Klebsiella pneumoniae, Table 1, V3 KP05 506, read-out: MIC
V11 5702 (Wales) E. coli = assay: as above; type: cell-based; conditions: Table 5, V11 MDR E.coli
[3] = test system: V9 (Egypt) Acinetobacter baumannii; assay: as above; type: cell-based; conditions: Table 5, V9 MDR Acin. baum
[4] = test system: V23 1322 Burkholderia cepacia; assay: as above; type: cell-based
[5] = test system: V19 non MDR Acinetobacter baumannii; assay: MIC assay, CAMHB with M-block alginate oligomer, no visible growth; type: cell-based; conditions: Table 7, V19 non MDR Acin. baum
Source text: as §1

[6] = test system: Pseudomonas aeruginosa MDR 301 from Poland (V2); assay: MIC assay, CAMHB with alginate oligomer, no visible growth; type: cell-based; conditions: Pseudomonas aeruginosa, Table 1, V2 MDR 301 PA, read-out: MIC
MDR Providencia stuartii = assay: MIC-assay, Mueller-Hinton broth with G-block alginate, 384-well, OD600 (Table 11); type: cell-based; conditions: Providencia stuartii (IR57 India, V7) MDR
Source text: (§2) Minimum inhibitory concentration (MICs) of different antibiotics for strains of E. coli and Providencia stuartii displaying MDR phenotypes in the presence of varying concentrations of OligoCF-5/20 (0-10%). (MIC values are expressed in μg ml^−1).

[7] = test system: strains of E. coli displaying MDR phenotypes; assay: as above; type: cell-based; conditions: Escherichia coli, Escherichia coli (5702, Wales, V11) MDR, read-out: MIC
Source text: as §2

[8] = Acinetobacter, OligoCF-5/20 0G, read-out: MIC
[9] = Escherichia coli, OligoCF-5/20 0G, read-out: MIC
[10] = Acinetobacter baumannii, OligoCF-5/20 0G, read-out: MIC
[11] = Burkholderia cepacia, Table 5, V23 MDR Burk cep, OligoCF-5/20 0G, read-out: MIC
[12] = Table 5, V23 MDR Burk cep, OligoCF-5/20 +2% G
[13] = Table 5, V23 MDR Burk cep, OligoCF-5/20 +6% G
[14] = Table 5, V23 MDR Burk cep, OligoCF-5/20 +10% G
[15] = Table 6, V23, Experiment 1 (18-03-10), OligoCF-5/20 +6% G
[16] = Table 6, V23, Experiment 1 (18-03-10), OligoCF-5/20 +10% G
[17] = Table 6, V23, Experiment 3 (19-03-10), OligoCF-5/20 +2% G
[18] = Table 6, V23, Experiment 3 (19-03-10), OligoCF-5/20 +10% G

SMILES	MIC (V22 6056 Acinetobacter; [8]) [µg/mL]	MIC (V22 6056 Acinetobacter; OligoCF-5/20 +10% G)	MIC (V11 5702 (Wales) E. coli; [9]) [µg/mL]	MIC (V11 5702 (Wales) E. coli; OligoCF-5/20 +2% G)	MIC (V11 5702 (Wales) E. coli; OligoCF-5/20 +6% G) [µg/mL]	MIC (V11 5702 (Wales) E. coli; OligoCF-5/20 +10% G) [µg/mL]	MIC [3, 10] [µg/mL]	MIC ([3]; OligoCF-5/20 +2% G)	MIC ([3]; OligoCF-5/20 +6% G)	MIC ([3]; OligoCF-5/20 +10% G)	MIC [4, 11] [µg/mL]	MIC [4, 12]	MIC [4, 13]	MIC [4, 14]	MIC [4, 15]	MIC [4, 16]	MIC [4, 17]	MIC [4, 18]	MIC (MDR Providencia stuartii; G-block (OligoCF-5/20) 0%) [µg/mL]	MIC (MDR Providencia stuartii; G-block (OligoCF-5/20) 2%) [µg/mL]	also measured
C[C@@H](O)[C@H]1C(=O)N2C(C(=O)O)=C(S[C@@H]3CN[C@H](C(=O)N(C)C)C3)[C@H](C)[C@H]12 [Meropenem]	256 (≈ 668 µM)	64^† μg/ml	< 0.25	<0.25 µg/mL	<0.25	<0.25	16 (≈ 41.7 µM)	8^† μg/ml	8^† μg/ml	4^† μg/ml	64 (≈ 167 µM)	64 µg/mL (≈ 167 µM)	32^† μg/ml	8^† μg/ml	64^† μg/ml	64^† μg/ml	64^† μg/ml	64^† μg/ml			MIC ([1]; Table 1, V4 ACB (Libya), OligoCF-5/20 0G): < 4 µg/mL; MIC ([1]; Table 1, V4 ACB (Libya), OligoCF-5/20 +2% G): < 4 µg/mL; MIC ([1]; Table 1, V4 ACB (Libya), OligoCF-5/20 +6% G): < 4 µg/mL; MIC ([1]; Table 1, V4 ACB (Libya), OligoCF-5/20 +10% G): < 4 µg/mL; MIC ([1]; Table 7, V4 MDR Acin baum (Libya), M-block oligomer 0M): 16 µg/mL (≈ 41.7 µM); MIC ([1]; Table 7, V4 MDR Acin baum (Libya), M-block oligomer +2% M): 32 µg/mL (≈ 83.4 µM); MIC ([1]; Table 7, V4 MDR Acin baum (Libya), M-block oligomer +6% M): 16 µg/mL (≈ 41.7 µM); MIC ([1]; Table 7, V4 MDR Acin baum (Libya), M-block oligomer +10% M): 8 µg/mL (≈ 20.9 µM); effectiveness in conjunction with alginate oligomers ([2]; Example 1, KP05 506): inconclusive; MIC ([2]; OligoCF-5/20 0G): 64 µg/mL (≈ 167 µM); MIC ([2]; OligoCF-5/20 +2% G): 64 µg/mL (≈ 167 µM); MIC ([5]; M-block oligomer 0M): 8 µg/mL (≈ 20.9 µM); MIC ([5]; M-block oligomer +2% M): 4 µg/mL (≈ 10.4 µM); MIC ([5]; M-block oligomer +6% M): 2 µg/mL (≈ 5.22 µM); MIC ([5]; M-block oligomer +10% M): 1 µg/mL (≈ 2.61 µM); MIC ([6]; OligoCF-5/20 0G): 64 µg/mL (≈ 167 µM); MIC ([6]; OligoCF-5/20 +2% G): 64 µg/mL (≈ 167 µM)
CN(C)[C@@H]1C(O)=C(C(N)=O)C(=O)[C@@]2(O)C(O)=C3C(=O)c4c(O)cccc4[C@@](C)(O)[C@H]3[C@H](O)[C@@H]12 [Oxytetracycline]	2 (≈ 4.34 µM)	8^‡ μg/ml	0.5 (≈ 1.09 µM)	1^‡ μg/ml	0.5 (≈ 1.09 µM)	0.5 (≈ 1.09 µM)	2 (≈ 4.34 µM)	2 µg/mL (≈ 4.34 µM)	1^† μg/ml	4^‡ μg/ml	256 (≈ 556 µM)	128^† μg/ml	128^† μg/ml	32^† μg/ml	256^† μg/ml	128^† μg/ml	256^† μg/ml	256^† μg/ml	128 (≈ 278 µM)	128 (≈ 278 µM)	MIC (V22 6056 Acinetobacter; OligoCF-5/20 +2% G): 2 µg/mL (≈ 4.34 µM); MIC (V22 6056 Acinetobacter; OligoCF-5/20 +6% G): 2 µg/mL (≈ 4.34 µM); MIC (MDR Providencia stuartii; G-block (OligoCF-5/20) 6%): 128 µg/mL (≈ 278 µM); MIC (MDR Providencia stuartii; G-block (OligoCF-5/20) 10%): 128 µg/mL (≈ 278 µM); MIC ([7]; G-block (OligoCF-5/20) 0%): 0.5 µg/mL (≈ 1.09 µM); MIC ([7]; G-block (OligoCF-5/20) 2%): 0.5 µg/mL (≈ 1.09 µM); MIC ([7]; G-block (OligoCF-5/20) 6%): 0.5 µg/mL (≈ 1.09 µM); MIC ([7]; G-block (OligoCF-5/20) 10%): 0.25 µg/mL (≈ 0.543 µM); MIC ([4]; Burkholderia cepacia, Table 6, V23, Experiment 1 (18-03-10), OligoCF-5/20 0G, read-out: MIC): > 256 µg/mL; MIC ([4]; Burkholderia cepacia, Table 6, V23, Experiment 2 (18-03-10), OligoCF-5/20 0G, read-out: MIC): > 256 µg/mL; MIC ([4]; Burkholderia cepacia, Table 6, V23, Experiment 3 (19-03-10), OligoCF-5/20 0G, read-out: MIC): > 256 µg/mL; MIC ([4]; Table 6, V23, Experiment 1 (18-03-10), OligoCF-5/20 +2% G): 256^† μg/ml; MIC ([4]; Table 6, V23, Experiment 2 (18-03-10), OligoCF-5/20 +2% G): >256 µg/mL; MIC ([4]; Table 6, V23, Experiment 2 (18-03-10), OligoCF-5/20 +6% G): 256^† μg/ml; MIC ([4]; Table 6, V23, Experiment 2 (18-03-10), OligoCF-5/20 +10% G): 128^† μg/ml; MIC ([4]; Table 6, V23, Experiment 3 (19-03-10), OligoCF-5/20 +6% G): 256^† μg/ml
CC[C@H]1OC(=O)[C@H](C)[C@@H](O[C@H]2C[C@@](C)(OC)[C@@H](O)[C@H](C)O2)[C@H](C)[C@@H](O[C@@H]2O[C@H](C)C[C@H](N(C)C)[C@H]2O)[C@](C)(O)C[C@@H](C)/C(=N\OCOCCOC)[C@H](C)[C@@H](O)[C@]1(C)O [Roxithromycin]																			64 (≈ 76.5 µM)	32 (≈ 38.2 µM)	MIC (MDR Providencia stuartii; G-block (OligoCF-5/20) 6%): 32 µg/mL (≈ 38.2 µM); MIC (MDR Providencia stuartii; G-block (OligoCF-5/20) 10%): 32 µg/mL (≈ 38.2 µM); MIC ([7]; G-block (OligoCF-5/20) 0%): 512 µg/mL (≈ 612 µM); MIC ([7]; G-block (OligoCF-5/20) 2%): 128 µg/mL (≈ 153 µM); MIC ([7]; G-block (OligoCF-5/20) 6%): 256 µg/mL (≈ 306 µM); MIC ([7]; G-block (OligoCF-5/20) 10%): 512 µg/mL (≈ 612 µM)
